# Measured values reported in patent publication US12398107B2, “Fungicidal nitroanilino substituted pyrazoles” (FMC Corporation, priority 2018, dated 2025).
# Tests used:
# Assay type in all cases: in vivo
# [1] = test system: Blumeria graminis f. sp. tritici; test: Test C: wheat powdery mildew, preventive spray on wheat seedlings; settings: rated after 8 days, 100 = 100% disease control, 0 = no control; for pest or weed control at 50 ppm / Test C disease control rating (wheat powdery mildew): 50 ppm
# In short: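 Compound dissolved in acetone (3% of final volume), then suspended in 50/50 acetone/water with 250 ppm PEG400 and sprayed to run-off on wheat seedlings. Inoculated next day with B. graminis f. sp. tritici spore dust, kept 8 days at 20° C; visual rating, 100 = full control, 0 = none, relative to controls.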
# Septoria tritici = test: Test A: wheat leaf blotch, preventive spray on wheat seedlings; settings: 100 = 100% disease control, 0 = no control relative to controls; for pest or weed control at 50 ppm / Test A disease control rating (wheat leaf blotch): 50 ppm
# In short: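 Compounds were suspended in acetone/water (50/50) with 250 ppm PEG400 and sprayed to run-off on wheat seedlings. The next day the seedlings were inoculated with Septoria tritici spores, held 48 h at 24 °C in saturated humidity, then 17 days at 20 °C. Disease control was rated 0–100 relative to controls.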
# [2] = test system: Puccinia recondita f. sp. tritici; test: Test B: wheat leaf rust, preventive spray on wheat seedlings; settings: 100 = 100% disease control, 0 = no control relative to controls; for pest or weed control at 50 ppm / Test B disease control rating (wheat leaf rust): 50 ppm
# In short: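 Compounds in acetone/water (50/50) with 250 ppm PEG400, sprayed to run-off on wheat seedlings at stated ppm; inoculated next day with P. recondita spores. Held 24 h saturated at 20° C., then 7 days in growth chamber at 20° C.; rating 0–100 = % disease control vs controls.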
# Phakopsora pachyrhizi = test: Test D: Asian soybean rust, preventive spray on soybean seedlings; settings: 100 = 100% disease control, 0 = no control; for pest or weed control at 50 ppm / Test D disease control rating (Asian soybean rust): 50 ppm
# In short: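 Soybean seedlings sprayed to run-off with compound suspension (ppm, in 50/50 acetone/water with 250 ppm PEG400), inoculated next day with P. pachyrhizi spores, held 24 h saturated at 22°C then 8 days at 22°C. Visual rating 0-100% disease control relative to controls.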
# Alternaria solani = test: Test F: tomato early blight, preventive spray on tomato seedlings; settings: 100 = 100% disease control, 0 = no control; for pest or weed control at 50 ppm / Test F disease control rating (tomato early blight): 50 ppm
# In short: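 Compounds in acetone/water (50/50) with 250 ppm PEG400, dosed in ppm, sprayed to run-off on tomato seedlings; next day inoculated with A. solani spores. Held 48 h saturated at 27° C, then 3 days at 20° C; visual rating 0–100% disease control relative to controls.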
# Botrytis cinerea = test: Test E: tomato Botrytis, preventive spray on tomato seedlings; settings: 100 = 100% disease control, 0 = no control; for pest or weed control at 50 ppm / Test E disease control rating (tomato Botrytis): 50 ppm
# In short: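 Tomato seedlings sprayed to run-off with compound (ppm) in acetone/water with 250 ppm PEG400, then inoculated next day with B. cinerea spores. Held 48 h at 20 °C in saturated atmosphere, then 3 days at 24 °C. Visual rating 0–100% disease control relative to untreated controls.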
# [3] = Blumeria graminis, 192 h, read-out: Test C disease control rating (wheat powdery mildew)
# [4] = Zymoseptoria tritici, read-out: Test A disease control rating (wheat leaf blotch)
# [5] = read-out: Test B disease control rating (wheat leaf rust)
# [6] = Phakopsora pachyrhizi, read-out: Test D disease control rating (Asian soybean rust)
# [7] = Alternaria solani, read-out: Test F disease control rating (tomato early blight)
# [8] = Botrytis cinerea, read-out: Test E disease control rating (tomato Botrytis)
Structure (SMILES),"pest or weed control at 10 ppm ([1]; Blumeria graminis, 192 h, 10 ppm, read-out: Test C disease control rating (wheat powdery mildew))","pest or weed control at 50 ppm [1, 3]","pest or weed control at 10 ppm (Septoria tritici; Zymoseptoria tritici, 10 ppm, read-out: Test A disease control rating (wheat leaf blotch))",pest or weed control at 50 ppm (Septoria tritici; [4]),"pest or weed control at 10 ppm ([2]; 10 ppm, read-out: Test B disease control rating (wheat leaf rust))","pest or weed control at 50 ppm [2, 5]","pest or weed control at 10 ppm (Phakopsora pachyrhizi; Phakopsora pachyrhizi, 10 ppm, read-out: Test D disease control rating (Asian soybean rust))",pest or weed control at 50 ppm (Phakopsora pachyrhizi; [6]),"pest or weed control at 10 ppm (Alternaria solani; Alternaria solani, 10 ppm, read-out: Test F disease control rating (tomato early blight))",pest or weed control at 50 ppm (Alternaria solani; [7]),"pest or weed control at 10 ppm (Botrytis cinerea; Botrytis cinerea, 10 ppm, read-out: Test E disease control rating (tomato Botrytis))",pest or weed control at 50 ppm (Botrytis cinerea; [8]),Test C disease control rating (wheat powdery mildew) [1],Test A disease control rating (wheat leaf blotch) (Septoria tritici),Test B disease control rating (wheat leaf rust) [2],Test D disease control rating (Asian soybean rust) (Phakopsora pachyrhizi),Test F disease control rating (tomato early blight) (Alternaria solani),Test E disease control rating (tomato Botrytis) (Botrytis cinerea)
"Cc1nn(C)c(Nc2c(F)cccc2[N+](=O)[O-])c1-c1c(F)cc(F)cc1Cl [Compound 68, 4-(2-chloro-4,6-difluorophenyl)-N-(2-fluoro-6-nitrophenyl)-1,3-dimethyl-1H-pyrazol-5-amine]",96%,100%,100%,100%,100%,100%,32%,99%,98%,99%,100%,100%,–,–,–,–,–,–
Cc1nn(C)c(Nc2cccc(Cl)c2[N+](=O)[O-])c1-c1ccc(F)cc1Cl [Compound 34],–,–,–,–,–,–,–,–,–,–,–,–,13%,100%,54%,0%,0%,71%
Cc1nn(C)c(Nc2c(Cl)cccc2[N+](=O)[O-])c1-c1ccc(Cl)cc1Cl [Compound 133],–,–,–,–,–,–,–,–,–,–,–,–,0%,100%,86%,0%,0%,97%
"COc1cc(F)c(Nc2c(-c3c(F)cccc3Cl)c(C)nn2C)c([N+](=O)[O-])c1 [Compound 23, 4-(2-chloro-6-fluorophenyl)-N-(2-fluoro-4-methoxy-6-nitrophenyl)-1,3-dimethyl-1H-pyrazol-5-amine]",–,100%,–,100%,–,100%,–,99%,–,99%,–,97%,–,–,–,–,–,–
COc1cc(F)c(-c2c(C)nn(C)c2Nc2ccc(F)cc2[N+](=O)[O-])c(F)c1 [Compound 83],–,–,–,–,–,–,–,–,–,–,–,–,99%,99%,91%,0%,99%,98%
Cc1nn(C)c(Nc2c(Cl)cccc2[N+](=O)[O-])c1-c1ccc(F)cc1Cl [Compound 108],–,–,–,–,–,–,–,–,–,–,–,–,97%,100%,100%,86%,77%,100%
Cc1nn(C)c(Nc2c(F)cc(F)cc2[N+](=O)[O-])c1-c1ccc(Cl)cc1Cl [Compound 9],–,–,–,–,–,–,–,–,–,–,–,–,97%,100%,100%,0%,99%,97%
Cc1nn(C)c(Nc2cc(Cl)ccc2[N+](=O)[O-])c1-c1ccc(F)cc1Cl [Compound 130],–,–,–,–,–,–,–,–,–,–,–,–,20%,85%,86%,0%,0%,85%
Cc1cccc([N+](=O)[O-])c1Nc1c(-c2ccc(C#N)cc2Cl)c(C)nn1C [Compound 157],–,–,–,–,–,–,–,–,–,–,–,–,76%,100%,97%,0%,0%,9%
Cc1cccc([N+](=O)[O-])c1Nc1c(-c2c(F)cc(F)cc2Br)c(C)nn1C [Compound 169],–,–,–,–,–,–,–,–,–,–,–,–,100%,100%,100%,0%,0%,98%
COc1ccc(-c2c(C)nn(C)c2Nc2ccccc2[N+](=O)[O-])c(Cl)c1 [Compound 140],–,–,–,–,–,–,–,–,–,–,–,–,31%,99%,86%,0%,93%,100%
"Cc1nn(C)c(Nc2c(Cl)cc(F)cc2[N+](=O)[O-])c1-c1ccc(F)cc1Cl [Compound 19, N-(2-chloro-4-fluoro-6-nitrophenyl)-4-(2-chloro-4-fluorophenyl)-1,3-dimethyl-1H-pyrazol-5-amine]",–,100%,–,100%,–,100%,–,98%,–,99%,–,100%,–,–,–,–,–,–
COc1ccc(-c2c(C)nn(C)c2Nc2c(F)cc(F)cc2[N+](=O)[O-])c(Cl)c1 [Compound 64],–,–,–,–,–,–,–,–,–,–,–,–,98%,100%,100%,97%,99%,98%
Cc1nn(C)c(Nc2c(Cl)cccc2[N+](=O)[O-])c1-c1c(F)cccc1F [Compound 77],–,–,–,–,–,–,–,–,–,–,–,–,95%,100%,100%,73%,9%,72%
Cc1nn(C)c(Nc2ccc(F)cc2[N+](=O)[O-])c1-c1ccc(F)cc1Br [Compound 20],–,–,–,–,–,–,–,–,–,–,–,–,92%,100%,89%,0%,26%,99%
Cc1cccc([N+](=O)[O-])c1Nc1c(-c2ccc(F)cc2Cl)c(C)nn1C [Compound 117],–,–,–,–,–,–,–,–,–,–,–,–,95%,99%,100%,0%,76%,99%
Cc1nn(C)c(Nc2c(Cl)cccc2[N+](=O)[O-])c1-c1ccc(F)cc1F [Compound 79],–,–,–,–,–,–,–,–,–,–,–,–,91%,100%,100%,44%,0%,98%
Cc1nn(C)c(Nc2ccccc2[N+](=O)[O-])c1-c1c(F)cc(F)cc1Cl [Compound 148],–,–,–,–,–,–,–,–,–,–,–,–,98%,100%,99%,13%,100%,99%
